Read-outs that look alike come from different tables or passages of the source. A value given as a limit tells only on which side of the number the result lay.

Consider 13 molecules from publication PMC8777946, “New Analogs of Polyamine Toxins from Spiders and Wasps: Liquid Phase Fragment Synthesis and Evaluation of Antiproliferative Activity” (Molecules, 2022).

Data set [1] has as its system MDA-MB-231 breast cancer cells. Description: Antiproliferative activity on MDA-MB-231 breast cancer cells (24 h, cell count or MTT). Type of data set: cell-based. The settings on record: for times less cytotoxic to the MDA-MB-231 cells than the MCF-7 cells: ratio of IC50 values; for IC50: read-out: IC50 MDA-MB-231. The method, then: (§1) The antiproliferative activity of the synthesized compounds was evaluated using MCF-7 and ΜDA-MB-231 breast carcinoma cells. MCF-7 cells are characterized by epithelial morphology, low metastatic potential, and low aggressiveness, and are estrogen receptor alpha (ERα)-positive, whereas MDA-MB-231cells are characterized by mesenchymal morphology, high metastatic potential, and high aggressiveness, and are ERβ-positive. The cells were treated for 24 h with compounds 1–10 in a range of concentrations, from 0 to 200 or 400 μM. In addition, the cells were treated with acid 21 alone and an equimolar mixture of acid 21 and Spd (the PA substructure of conjugate 2), to determine the effect of conjugation on the antiproliferative activity. The estimated IC50 values for these compounds are provided in Table 1 (see also Supplementary Material, Table S1). For the sake of comparison, the ΙC50 values of PATs HO-416b and Agel 416, determined previously, are included in Table 1. Calculated LogD values at pH 7.4, the physiological pH of blood serum, using ChemAxon’s Chemicalize platform are also included in Table 1.
(§2) MCF-7 and MDA-MB-231 breast cancer cell lines were purchased from the American Type Culture Collection (ATCC). All cells were routinely cultured in a humidified 95% air/5% CO2 incubator at 37 °C in complete medium Dulbecco’s Modified Eagle’s Medium (DMEM) supplemented with 10% (v/v) fetal bovine serum (FBS) 1.0 mM sodium pyruvate, 2 mM l-glutamine, and 100 IU/mL penicillin. The synthesized compounds were dissolved in ddH2O (or DMSO for compound […] and the equimolar mixture of compounds […] and Spd) at a final concentration of 10 mM and further dilutions were conducted with culture medium.
(§3) MCF-7 and ΜDA-MB-231 breast cancer cells were seeded in 12-well plates and were allowed to grow up to 60–70% confluence. After renewing the culture medium, cancer cells were treated for 24 h in serum-containing culture medium with compounds 1–10 in a range of concentrations, from 0 to 200 or 400 μM. In addition, cells were treated with acid 21 alone and an equimolar mixture of acid 21 and Spd in order to determine the effect of conjugation on the antiproliferative activity. Then, the surviving breast cancer cells were measured, either manually (for compounds Agel 416, HO-416b, 1-3, 6-7) or by measuring the absorbance following an MTT assay (for compounds 4-5, 8-10, 21 and 21+Spd), as described below in detail. The percentage of live cells was plotted against the log values of compound concentrations, and a non-linear fit plot was used to estimate the IC50 value for each compound.

Data set [2] relates to MDA-MB-231 breast cancer cells. The following applies: 24 h treatment; ± SD; reference PATs, determined previously; cited from earlier work.
In data set [3] the test system is MCF-12A normal epithelial mammary cells. Nature of the data set: cells. Type of data set: cell-based. The settings on record: for IC50: Homo sapiens, MCF-12A, 24 h incubation, serum-free medium, MTT; for selectivity index (SI) for the MCF-7 cells: IC50 MCF-12A versus IC50 MCF-7; for selectivity index (SI) for the MDA-MB-231 cells: IC50 MCF-12A versus IC50 MDA-MB-231. The method, then:
(§4) The IC50 values of the tested compounds are summarized in Table 2 (see also Supplementary Material, Table S2).
(§5) […]. The chemical compounds were reconstituted in DMSO.
(§6) For the MTT [3-(4,5-dimethylthiazol-2-yl)-2,5-diphenyltetrazolium bromide] assay, cells were seeded in a 96-well plate (26.000 cells/well) for 48 h. Then, after overnight starvation through serum deprivation, cells were incubated for 24 h, with the chemical compounds at 100, 10, 1, and 0.1 μM concentrations in the MCF-12A culture medium deprived of serum. Next, MTT (5 mg/mL in sterile PBS) was added in an amount of 10% in the culture media volume for 4-h cell incubation at 37 °C. Subsequently, an MTT solubilization solution was added, in an amount equal to the original culture media volume (100 μL/well), and the formazan crystals were dissolved through thorough pipetting. The spectrophotometric measure of cells’ viability was performed in a Tecan (SPARK) spectrophotometer at an absorbance wavelength of 570 nm. Incubation with H2O2 was established as cytotoxicity positive control. The percentage of viability for each sample was calculated with respect to cells incubated with MCF-12A culture media (without serum) containing 2% DMSO (negative cytotoxicity control).

The nature of another data set: in vitro. The following applies: human, 24 h, MTT, read-out: % viability of MCF 12A. Format: cell-based. The procedure:
as §4, §5, §6

The subject of data set [4] is MCF-7 breast cancer cells. The settings on record: 24 h treatment; ± SD; reference PATs, determined previously; cited from earlier work.
Data set [5] has as its system MCF-7 breast cancer cells. Nature of the data set: Antiproliferative activity on MCF-7 breast cancer cells (24 h, cell count or MTT). Format: cell-based. The settings on record: for IC50: read-out: IC50 MCF-7. The method, then:
as §1, §2, §3

Setting [6] is: Homo sapiens, MDA-MB-231, 24 h, 24 h treatment, serum-containing medium, manual count (1-3, 6-7) or MTT (4-5, 8-10, 21, 21+Spd), ± SD, tested as trifluoroacetate salts.
Where [7] appears, read: Homo sapiens, MCF7, 24 h, 24 h treatment, serum-containing medium, manual count (1-3, 6-7) or MTT (4-5, 8-10, 21, 21+Spd), ± SD, tested as trifluoroacetate salts.
Setting [8] is: 24 h treatment, serum-containing medium, manual count (1-3, 6-7) or MTT (4-5, 8-10, 21, 21+Spd), ± SD, tested as trifluoroacetate salts.

Take `NCCCNCCCCNCCCNCCCNC(=O)Cc1c[nH]c2ccccc12` [Agel 416]: in data set [1], the “times less cytotoxic to the MDA-MB-231 cells than the MCF-7 cells” value turned out to be 6 times. In addition, the IC50 (usually the concentration needed to halve the response being measured) in data set [2] is 3.31 ± 0.08 µM; in data set [3], 184 µM; in data set [4], 0.55 ± 0.02 µM. The “selectivity index (SI) for the MCF-7 cells” value in data set [3] is about 335. Further, in data set [3], the “selectivity index (SI) for the MDA-MB-231 cells” value was about 56. Moreover, the viability (as a rule, the share of living cells, or the viability signal relative to a control) in the data set “in vitro” (0.1 μΜ) turned out to be 95.4%; in the data set “in vitro” (1 μΜ) it was 84.3%; in the data set “in vitro” (10 μΜ), 63.5%; in the data set “in vitro” (100 μΜ), 69%.

On to `NCCCNCCCCNCCCNC(=O)Cc1c[nH]c2ccccc12` [Compound 1], for which the IC50 in data set [1] (setting [6]) and in data set [5] (setting [7]) was over 200 µM each time.

Regarding `NCCCNCCCCNC(=O)Cc1c[nH]c2ccccc12` [Compound 2], the values for the IC50 in data set [1] (setting [6]) and in data set [5] (setting [7]) were 12.6 ± 0.57 µM and 3.15 ± 0.25 µM, respectively. Besides, the entries for the “times less active than HO-416b” value in data set [1] (MDA-MB-231 cells) and in data set [5] (MCF-7 cells) were 4 times and 35 times, respectively. The “times more active than the mere combination of 21 and Spd” value is on record as about 22 times in data set [1] (MDA-MB-231 cells) and about 42 times in data set [5] (MCF-7 cells).

For `NCCCCNC(=O)Cc1c[nH]c2ccccc12` [Compound 3], the IC50 in data set [1] (setting [8]) is 107 µM; in data set [1] (setting [6]), 170 µM; in data set [5] (setting [8]) it was 272 ± 11.2 µM; in data set [5] (setting [7]), 272 µM.

As to `CCCC(=O)N[C@H](C(=O)NCCCCNCCCNCCCN)[C@@H](C)O` [Compound 4], the IC50 in data set [1] (setting [6]) and in data set [5] (setting [7]) was over 400 µM each time.

As for `CCCC(=O)N[C@H](C(=O)NCCCNCCCCNCCCN)[C@@H](C)O` [Compound 5], the IC50 in data set [1] (setting [6]) and in data set [5] (setting [7]) was over 400 µM throughout.

`CCCC(=O)N[C@@H](Cc1ccc(O)cc1)C(=O)NCCCNCCCCNCCCN` [Compound 6]: the IC50 was over 400 µM in data set [1] (Homo sapiens, MDA-MB-231, 24 h) and over 400 µM in data set [5] (Homo sapiens, MCF7, 24 h).

Turning to `CCCC(=O)N[C@@H](Cc1ccc(O)cc1)C(=O)NCCCCNCCCCNCCCCN` [Compound 7], the IC50 in data set [1] (setting [6]) and in data set [5] (setting [7]) was over 400 µM in each case.

As to `CCCC(=O)N[C@@H](Cc1ccc(O)cc1)C(=O)NCCCCNCCCNCCCNCCCN` [Compound 8], the IC50 in data set [1] (setting [6]) and in data set [5] (setting [7]) was over 400 µM throughout.

Take `C#CC[C@H](NC(=O)c1ccc(C2(C(F)(F)F)N=N2)cc1)C(=O)NCCCCNCCCNCCCN` [Compound 9]: the half-inhibitory concentration (IC50) in data set [1] (setting [6]) is over 200 µM; in data set [5] (setting [7]), 2.63 ± 1.58 µM.

As to `C#CC[C@H](NC(=O)c1ccc(C2(C(F)(F)F)N=N2)cc1)C(=O)NCCCNCCCNCCCCN` [Compound 10], the values for the half-maximal inhibitory concentration (IC50) in data set [1] (setting [6]) and in data set [5] (setting [7]) were over 200 µM and 2.81 ± 1.64 µM, respectively.

Take `O=C(O)Cc1c[nH]c2ccccc12` [Compound 21, (indol-3-yl)acetic acid, reference compound]: the IC50 in data set [1] (setting [6]) is 262 ± 42 µM; in data set [5] (setting [7]), 366 ± 73 µM.

On to `NCCCNCCCNCCCNCCCCNC(=O)Cc1c[nH]c2ccccc12` [HO-416b], for which the “times less cytotoxic to the MDA-MB-231 cells than the MCF-7 cells” value in data set [1] is on record as about 44 times. Further, the IC50 in data set [2] was 3.98 ± 0.064 µM; in data set [3] it was 97.2 µM; in data set [4] it was 0.09 ± 0.012 µM. For the same molecule, the “times more cytotoxic than Agel 416” value is given as about 6 times in data set [5] (MCF-7 cells) and about 1.9 times in data set [3] (MCF-12A cells). For the same molecule, in data set [3], the “selectivity index (SI) for the MCF-7 cells” value is reported as about 1080. The “selectivity index (SI) for the MDA-MB-231 cells” value in data set [3] is on record as about 24. Further, the viability in “in vitro” (0.1 μΜ) worked out at 92.5%; in “in vitro” (1 μΜ), 89.7%; in the data set “in vitro” (10 μΜ) it was 77.5%; in “in vitro” (100 μΜ) it was 50.8%.
